The text below walks through data of article PMC3586822 (Chemico-biological interactions, 2012).

The target of this assay is human AChE (Homo sapiens, UniProt P22303). Description: coupled Ellman assay, second-order hydrolysis. The format is biochemical. In general terms: In Ellman's method for cholinesterases, released thiocholine reacts with DTNB.

SMILES strings stand for the structures.

Sequence of human AChE (P22303 32-614): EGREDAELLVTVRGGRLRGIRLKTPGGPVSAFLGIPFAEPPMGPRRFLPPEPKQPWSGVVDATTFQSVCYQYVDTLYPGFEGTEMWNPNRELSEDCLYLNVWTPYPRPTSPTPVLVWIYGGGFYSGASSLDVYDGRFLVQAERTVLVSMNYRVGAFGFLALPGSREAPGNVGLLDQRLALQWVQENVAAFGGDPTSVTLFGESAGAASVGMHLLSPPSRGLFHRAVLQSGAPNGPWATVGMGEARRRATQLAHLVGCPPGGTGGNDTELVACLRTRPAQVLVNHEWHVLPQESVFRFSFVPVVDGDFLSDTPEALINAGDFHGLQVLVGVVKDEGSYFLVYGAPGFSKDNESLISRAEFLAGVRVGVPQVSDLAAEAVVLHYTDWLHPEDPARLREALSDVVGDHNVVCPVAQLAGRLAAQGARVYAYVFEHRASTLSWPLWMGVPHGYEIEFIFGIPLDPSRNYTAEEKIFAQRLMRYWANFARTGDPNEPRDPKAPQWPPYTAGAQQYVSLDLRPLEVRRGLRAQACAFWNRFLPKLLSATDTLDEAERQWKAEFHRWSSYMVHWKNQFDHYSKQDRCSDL

Broadly, the Ki is the dissociation constant of the complex between target and ligand, obtained from inhibition or displacement. Consider `Cc1ccc2c(c1)sc(-c1ccc(N(C)C)cc1)[n+]2C` [thioflavin T], for which the inhibition constant (Ki) came to 1330 ± 50 nM.
